Values after ≈ are worked out from the molar mass of the structure shown.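 Interpolation was linear, between the two tested concentrations surrounding the appropriate level; five concentrations were tested over 48 hours in 96-well plates. GI50 is the concentration that inhibits growth by half. TGI: concentration producing complete growth inhibition.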
Experiments:
Assay in all cases: inhibition of tumour cell growth, NCI panel, 48 h
LOX IMVI melanoma = system: LOX IMVI melanoma
UO-31 renal = system: UO-31 renal
SNB-75 CNS = system: SNB-75 CNS
KM12 colon = system: KM12 colon
SK-MEL-5 melanoma = system: SK-MEL-5 melanoma
RPMI-8226 leukemia = system: RPMI-8226 leukemia
HCT-116 colon = system: HCT-116 colon
HT29 colon = system: HT29 colon
UACC-62 melanoma = system: UACC-62 melanoma
EKVX NSCLC = system: EKVX NSCLC
HOP-62 NSCLC = system: HOP-62 NSCLC
NCI-H23 lung = system: NCI-H23 lung
UACC-257 melanoma = system: UACC-257 melanoma
U251 CNS = system: U251 CNS
MCF7 breast = system: MCF7 breast
MDA-MB-231 breast = system: MDA-MB-231 breast
OVCAR-8 ovarian = system: OVCAR-8 ovarian
COLO 205 colon = system: COLO 205 colon
BT-549 breast = system: BT-549 breast
SK-MEL-2 melanoma = system: SK-MEL-2 melanoma
RXF 393 renal = system: RXF 393 renal
SN12C renal = system: SN12C renal
SNB-19 CNS = system: SNB-19 CNS
M14 melanoma = system: M14 melanoma
CAKI-1 renal = system: CAKI-1 renal
NCI/ADR-RES ovarian = system: NCI/ADR-RES ovarian
MDA-N = system: MDA-N
NCI-H226 lung = system: NCI-H226 lung
SR leukemia = system: SR leukemia
PC-3 prostate = system: PC-3 prostate
SW-620 colon = system: SW-620 colon
A549 NSCLC = system: A549 NSCLC
OVCAR-4 ovarian = system: OVCAR-4 ovarian
DU-145 prostate = system: DU-145 prostate
ACHN renal = system: ACHN renal
OVCAR-3 ovarian = system: OVCAR-3 ovarian
SF-295 CNS = system: SF-295 CNS
SF-539 CNS = system: SF-539 CNS
786-0 renal = system: 786-0 renal
NCI-H522 lung = system: NCI-H522 lung
SK-MEL-28 melanoma = system: SK-MEL-28 melanoma
HCC-2998 colon = system: HCC-2998 colon
K-562 leukemia = system: K-562 leukemia
TK-10 renal = system: TK-10 renal
MOLT-4 leukemia = system: MOLT-4 leukemia
MDA-MB-435 = system: MDA-MB-435
SF-268 CNS = system: SF-268 CNS
SK-OV-3 ovarian = system: SK-OV-3 ovarian
A498 renal = system: A498 renal
HCT-15 colon = system: HCT-15 colon
CCRF-CEM leukemia = system: CCRF-CEM leukemia
MALME-3M melanoma = system: MALME-3M melanoma
OVCAR-5 ovarian = system: OVCAR-5 ovarian
IGROV1 ovarian = system: IGROV1 ovarian
HL-60(TB) leukemia = system: HL-60(TB) leukemia
HS 578T breast = system: HS 578T breast
NCI-H460 lung = system: NCI-H460 lung
HOP-92 NSCLC = system: HOP-92 NSCLC

## COC(=O)C([C@H]1CC[C@H](OCc2ccccc2)[C@@]1(O)COCc1ccccc1)C(C)(O)CCc1ccccc1 (some centres not stated)
LOX IMVI melanoma
  TGI: 22.8 µM
UO-31 renal
  TGI: 23.7 µM
SNB-75 CNS
  TGI: 19.7 µM
KM12 colon
  TGI: 16.4 µM
SK-MEL-5 melanoma
  TGI: 27.6 µM
RPMI-8226 leukemia
  TGI: 43.3 µM
HCT-116 colon
  TGI: 24.2 µM
HT29 colon
  TGI: 22.2 µM
UACC-62 melanoma
  TGI: 26.6 µM
EKVX NSCLC
  TGI: 38.2 µM
HOP-62 NSCLC
  TGI: 29.6 µM
NCI-H23 lung
  TGI: 37.8 µM
UACC-257 melanoma
  TGI: 35.1 µM
U251 CNS
  TGI: 27.2 µM
MCF7 breast
  TGI: 25.3 µM
MDA-MB-231 breast
  TGI: 26.2 µM
OVCAR-8 ovarian
  TGI: 41.5 µM
COLO 205 colon
  TGI: 25.8 µM
BT-549 breast
  TGI: 30.8 µM
SK-MEL-2 melanoma
  TGI: 25.3 µM
RXF 393 renal
  TGI: 25.9 µM
SN12C renal
  TGI: 16.2 µM
SNB-19 CNS
  TGI: > 100 µM
M14 melanoma
  TGI: 22.9 µM
CAKI-1 renal
  TGI: > 100 µM
NCI/ADR-RES ovarian
  TGI: 26.5 µM
MDA-N
  TGI: 26.6 µM
NCI-H226 lung
  TGI: 26.6 µM
SR leukemia
  TGI: 26.4 µM
PC-3 prostate
  TGI: 16.3 µM
SW-620 colon
  TGI: 28.9 µM
A549 NSCLC
  TGI: 27.1 µM
OVCAR-4 ovarian
  TGI: 43.9 µM
DU-145 prostate
  TGI: 72.7 µM
ACHN renal
  TGI: 29.2 µM
OVCAR-3 ovarian
  TGI: 27.2 µM
SF-295 CNS
  TGI: 23.3 µM
SF-539 CNS
  TGI: 29.1 µM
786-0 renal
  TGI: 27.4 µM
NCI-H522 lung
  TGI: 26.1 µM
SK-MEL-28 melanoma
  TGI: 30.1 µM
HCC-2998 colon
  TGI: 33.2 µM
K-562 leukemia
  TGI: 35.5 µM
TK-10 renal
  TGI: 39.9 µM
MOLT-4 leukemia
  TGI: 19.7 µM
MDA-MB-435
  TGI: 29.4 µM
SF-268 CNS
  TGI: 22 µM
SK-OV-3 ovarian
  TGI: > 100 µM
A498 renal
  TGI: 28.6 µM
HCT-15 colon
  TGI: 37.4 µM
CCRF-CEM leukemia
  TGI: 60.2 µM
MALME-3M melanoma
  TGI: 25.7 µM
OVCAR-5 ovarian
  TGI: 27 µM
IGROV1 ovarian
  TGI: 29.3 µM

## CC(=O)OC1CCC(OC(C)=O)[C@H]2[C@@H]1[C@@H]1S[C@H]2c2ccccc21 (some centres not stated)
LOX IMVI melanoma
  GI50: 80.6 µg/mL (≈ 242 µM)
SNB-75 CNS
  GI50: 48.1 µg/mL (≈ 145 µM)
HL-60(TB) leukemia
  GI50: 22 µg/mL (≈ 66.1 µM)
KM12 colon
  GI50: 49 µg/mL (≈ 147 µM)
UACC-62 melanoma
  GI50: 41.4 µg/mL (≈ 124 µM)
EKVX NSCLC
  GI50: 54.8 µg/mL (≈ 165 µM)
UACC-257 melanoma
  GI50: 76.8 µg/mL (≈ 231 µM)
U251 CNS
  GI50: 81.9 µg/mL (≈ 246 µM)
COLO 205 colon
  GI50: 59.1 µg/mL (≈ 178 µM)
M14 melanoma
  GI50: 27.9 µg/mL (≈ 84 µM)
NCI/ADR-RES ovarian
  GI50: 99.2 µg/mL (≈ 298 µM)
MDA-N
  GI50: 24.2 µg/mL (≈ 72.8 µM)
OVCAR-4 ovarian
  GI50: 31.3 µg/mL (≈ 94.1 µM)
DU-145 prostate
  GI50: 85.3 µg/mL (≈ 257 µM)
SF-295 CNS
  GI50: 36 µg/mL (≈ 108 µM)
786-0 renal
  GI50: 85.6 µg/mL (≈ 257 µM)
NCI-H522 lung
  GI50: 32.5 µg/mL (≈ 97.7 µM)
SK-MEL-28 melanoma
  GI50: 97.3 µg/mL (≈ 293 µM)
HCC-2998 colon
  GI50: 50.1 µg/mL (≈ 151 µM)
K-562 leukemia
  GI50: 35.9 µg/mL (≈ 108 µM)
TK-10 renal
  GI50: 35.7 µg/mL (≈ 108 µM)
HS 578T breast
  GI50: 76.1 µg/mL (≈ 229 µM)
MDA-MB-435
  GI50: 21.6 µg/mL (≈ 64.9 µM)
SK-OV-3 ovarian
  GI50: 4.09 µg/mL (≈ 12.3 µM)
A498 renal
  GI50: 43.9 µg/mL (≈ 132 µM)
HCT-15 colon
  GI50: 93.7 µg/mL (≈ 282 µM)
CCRF-CEM leukemia
  GI50: 36.4 µg/mL (≈ 109 µM)
MALME-3M melanoma
  GI50: 62.1 µg/mL (≈ 187 µM)

## COC(=S)OC1CC(n2cnc3c(=O)[nH]cnc32)OC1CO[Si](C)(C)C(C)(C)C (configuration not stated)
LOX IMVI melanoma
  TGI: > 100 µM
SNB-75 CNS
  TGI: > 100 µM
HL-60(TB) leukemia
  TGI: > 100 µM
KM12 colon
  TGI: > 100 µM
SK-MEL-5 melanoma
  TGI: > 100 µM
NCI-H460 lung
  TGI: > 100 µM
RPMI-8226 leukemia
  TGI: > 100 µM
HCT-116 colon
  TGI: > 100 µM
HT29 colon
  TGI: > 100 µM
UACC-62 melanoma
  TGI: > 100 µM
EKVX NSCLC
  TGI: > 100 µM
HOP-62 NSCLC
  TGI: > 100 µM
NCI-H23 lung
  TGI: > 100 µM
UACC-257 melanoma
  TGI: > 100 µM
U251 CNS
  TGI: > 100 µM
MCF7 breast
  TGI: > 100 µM
MDA-MB-231 breast
  TGI: > 100 µM
OVCAR-8 ovarian
  TGI: > 100 µM
COLO 205 colon
  TGI: > 100 µM
SK-MEL-2 melanoma
  TGI: > 100 µM
RXF 393 renal
  TGI: > 100 µM
SN12C renal
  TGI: > 100 µM
SNB-19 CNS
  TGI: > 100 µM
M14 melanoma
  TGI: > 100 µM
CAKI-1 renal
  TGI: > 100 µM
NCI/ADR-RES ovarian
  TGI: > 100 µM
MDA-N
  TGI: > 100 µM
NCI-H226 lung
  TGI: > 100 µM
SR leukemia
  TGI: > 100 µM
PC-3 prostate
  TGI: > 100 µM
SW-620 colon
  TGI: > 100 µM
A549 NSCLC
  TGI: > 100 µM
OVCAR-4 ovarian
  TGI: > 100 µM
DU-145 prostate
  TGI: > 100 µM
ACHN renal
  TGI: > 100 µM
OVCAR-3 ovarian
  TGI: > 100 µM
SF-295 CNS
  TGI: > 100 µM
SF-539 CNS
  TGI: > 100 µM
786-0 renal
  TGI: > 100 µM
NCI-H522 lung
  TGI: > 100 µM
SK-MEL-28 melanoma
  TGI: > 100 µM
HOP-92 NSCLC
  TGI: > 100 µM
K-562 leukemia
  TGI: > 100 µM
TK-10 renal
  TGI: > 100 µM
MOLT-4 leukemia
  TGI: > 100 µM
HS 578T breast
  TGI: > 100 µM
MDA-MB-435
  TGI: > 100 µM
SF-268 CNS
  TGI: > 100 µM
SK-OV-3 ovarian
  TGI: > 100 µM
A498 renal
  TGI: > 100 µM
HCT-15 colon
  TGI: > 100 µM
CCRF-CEM leukemia
  TGI: > 100 µM
MALME-3M melanoma
  TGI: > 100 µM
OVCAR-5 ovarian
  TGI: > 100 µM
IGROV1 ovarian
  TGI: > 100 µM

Reference: PubChem BioAssay (NCI)
